Columns and labels:
Zucker obese fa/fa rats = assay: Oral Glucose Tolerance Test (OGTT); type: in vivo, rat; details: 10 mg/kg, given orally 120 minutes before glucose 2 g/kg; Zucker obese fa/fa rats on high fat diet
Method: Oral glucose tolerance tests were done on conscious Zucker obese fa/fa rats (age 12-13 weeks or older) fed a high fat diet (45% kcal fat) for at least two weeks prior to experimentation. The animals were fasted for 2 hours before use for experiments. A test compound or a vehicle was given orally 120 minutes before oral administration of a glucose solution at a dose of 2 g/kg body weight. Blood glucose levels were measured using a Accucheck glucometer from tail bled samples taken at different time points before and after administration of glucose (time course of […]). A time curve of the blood glucose levels was generated and the area-under-the-curve (AUC) for 120 minutes was calculated (the time of glucose administration being time zero). Percent reduction in glucose excursion was determined using the AUC in the vehicle-control group as zero percent reduction.

[1] = target: T1, recombinant human pancreatic GLK (Homo sapiens, UniProt P35557); assay: biochemical
T1 sequence (P35557 1-465): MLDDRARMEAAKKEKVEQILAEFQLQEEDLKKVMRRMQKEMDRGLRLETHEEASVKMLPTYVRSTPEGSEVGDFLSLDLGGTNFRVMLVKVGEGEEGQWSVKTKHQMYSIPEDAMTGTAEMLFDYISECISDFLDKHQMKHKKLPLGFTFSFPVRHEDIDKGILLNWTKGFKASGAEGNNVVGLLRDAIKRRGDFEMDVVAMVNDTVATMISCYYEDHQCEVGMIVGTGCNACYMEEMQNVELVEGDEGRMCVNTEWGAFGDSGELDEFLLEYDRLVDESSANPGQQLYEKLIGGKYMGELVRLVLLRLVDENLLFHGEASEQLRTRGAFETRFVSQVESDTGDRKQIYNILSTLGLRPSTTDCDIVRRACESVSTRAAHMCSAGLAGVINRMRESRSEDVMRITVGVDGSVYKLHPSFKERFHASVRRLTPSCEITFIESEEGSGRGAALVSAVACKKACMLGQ

| SMILES | melting point [°C] | OGTT activity (percent reduction in glucose excursion, AUC) (Zucker obese fa/fa rats) [%] | EC50 [1] [nM] |
| --- | --- | --- | --- |
| COC[C@H](C)Oc1cc(Oc2ccc(C(=O)N3CCC3)nc2)cc(C(=O)Nc2ccn(C)n2)c1 [Example 3, 3-{[6-(Azetidin-1-ylcarbonyl)pyridin-3-yl]oxy}-5-{[(1S)-1-methyl-2-(methyloxy)ethyl]oxy}-N-(1-methyl-1H-pyrazol-3-yl)benzamide] | 132.7 | 54 | 31 |
| Cc1cnc(NC(=O)c2cc(Oc3ccc(C(=O)N4CCC4)nc3)cc(OC(C)C)c2)cn1 [Example 37, 3-{[6-(Azetidin-1-ylcarbonyl)pyridin-3-yl]oxy}-5-[(1-methylethyl)oxy]-N-(5-methylpyrazin-2-yl)benzamide] | 125.7 | – | – |
| Cc1cnc(NC(=O)c2cc(Oc3cnc(C(=O)N4CCC4)cn3)cc(O[C@@H](C)CO)c2)cn1 [Example 59, 3-{[5-(Azetidin-1-ylcarbonyl)pyrazin-2-yl]oxy}-5-{[(1S)-2-hydroxy-1-methylethyl]oxy}-N-(5-methylpyrazin-2-yl)benzamide] | 100.6 | – | – |
